One series has as its target T1, GluN1/GluN2C receptors (Rattus norvegicus, UniProt P35439+Q00961).
T1 construct: expressed in transfected cells; host or cells: HEK293
Kind of series: Patch-clamp inhibition of GluN1/GluN2C receptors in transfected HEK293 cells. It is filed as cell-based. The note with it: 1 mM glutamate and 10 μM glycine. The method, then:
(§1) FIGURE 7 Concentration–response properties of compound 6 on GluN1/GluN2A-D receptors. (A) Examples of traces obtained from HEK293 cells transfected with cDNAs encoding GluN1/GluN2A, GluN1/GluN2B, GluN1/GluN2C, and GluN1/GluN2D receptors. Agonists (1 mM glutamate and 10 μM glycine) were applied alone and simultaneously with compound 6 (10 μM) to evaluate the inhibitory effect of compound 6 on NMDAR mediated currents (duration of glutamate and steroid application is indicated by filled and open bars, respectively). (B) Concentration–response curves for the compound 6 effect at GluN1/GluN2A-D receptors. Data points are averaged values of normalized responses from at least four HEK293 cells. Error bars represent SD.
(§2) Electrophysiological experiments were performed on HEK293 cells transfected with plasmids encoding rat GluN1-1a/GluN2A-D and GFP genes as described previously, ([Petrovic et al., 2005]; [Cais et al., 2008]; [Korinek et al., 2010]) or on primary hippocampal neurons prepared from P0–P1 rats, plated on collagen/poly-D-lysine-coated glass coverslips at a density of ∼50,000 cells/cm^2, and grown in Neurobasal A medium with B27 Supplement (Gibco). Agonist-induced responses were voltage-clamped at a holding potential of −60 mV. […] Agonist-induced responses were low-pass filtered at 2 kHz, digitally sampled at 5 kHz, and analyzed with pClamp software version 10.5 (Molecular Devices). […]
(Patch clamp records ionic current or voltage across a cell membrane.)

Another series addresses T2, GluN1/GluN2D receptors (Rattus norvegicus, UniProt P35439+Q62645).
T2 construct: expressed in transfected cells; host or cells: HEK293
Kind of series: Patch-clamp inhibition of GluN1/GluN2D receptors in transfected HEK293 cells. It is filed as cell-based. The note with it: 1 mM glutamate and 10 μM glycine. As for the experimental part:
as §1, §2

Series [1] can be described thus: Plasma stability, rat plasma. Format: in vitro ADME. The note with it: rat, plasma.

T1 sequence (Q00961 20-1237, other chains not shown): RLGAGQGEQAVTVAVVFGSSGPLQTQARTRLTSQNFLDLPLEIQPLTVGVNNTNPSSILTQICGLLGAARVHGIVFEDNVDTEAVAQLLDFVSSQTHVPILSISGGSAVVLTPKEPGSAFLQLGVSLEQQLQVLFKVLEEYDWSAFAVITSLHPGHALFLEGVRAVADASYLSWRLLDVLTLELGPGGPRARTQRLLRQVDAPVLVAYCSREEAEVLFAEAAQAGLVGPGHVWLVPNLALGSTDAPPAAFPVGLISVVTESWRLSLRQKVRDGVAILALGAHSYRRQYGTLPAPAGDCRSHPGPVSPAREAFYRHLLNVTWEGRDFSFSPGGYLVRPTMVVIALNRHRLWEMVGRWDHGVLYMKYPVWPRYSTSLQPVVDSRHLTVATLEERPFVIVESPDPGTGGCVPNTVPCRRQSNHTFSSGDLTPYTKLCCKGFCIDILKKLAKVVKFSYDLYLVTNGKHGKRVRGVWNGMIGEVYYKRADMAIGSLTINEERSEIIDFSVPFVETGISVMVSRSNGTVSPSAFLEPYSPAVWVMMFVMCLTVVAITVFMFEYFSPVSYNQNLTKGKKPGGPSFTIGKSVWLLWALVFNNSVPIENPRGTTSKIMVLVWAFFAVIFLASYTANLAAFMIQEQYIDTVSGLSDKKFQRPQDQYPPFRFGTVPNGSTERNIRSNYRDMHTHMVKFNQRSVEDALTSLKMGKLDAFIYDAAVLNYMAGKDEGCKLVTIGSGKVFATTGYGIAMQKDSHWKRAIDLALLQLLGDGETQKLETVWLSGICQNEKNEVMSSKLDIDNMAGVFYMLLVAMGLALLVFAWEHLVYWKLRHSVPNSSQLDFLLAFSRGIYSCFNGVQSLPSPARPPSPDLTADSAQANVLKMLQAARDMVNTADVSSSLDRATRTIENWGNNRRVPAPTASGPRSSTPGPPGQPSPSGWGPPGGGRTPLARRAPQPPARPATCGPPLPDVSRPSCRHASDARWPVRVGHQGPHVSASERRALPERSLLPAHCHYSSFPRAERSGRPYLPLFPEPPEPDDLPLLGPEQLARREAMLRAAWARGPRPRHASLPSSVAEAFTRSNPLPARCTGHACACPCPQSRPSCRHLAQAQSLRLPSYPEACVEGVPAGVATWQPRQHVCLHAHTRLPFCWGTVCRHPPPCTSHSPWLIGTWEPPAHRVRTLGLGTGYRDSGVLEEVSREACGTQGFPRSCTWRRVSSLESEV
T2 sequence (Q62645 28-1323, other chains not shown): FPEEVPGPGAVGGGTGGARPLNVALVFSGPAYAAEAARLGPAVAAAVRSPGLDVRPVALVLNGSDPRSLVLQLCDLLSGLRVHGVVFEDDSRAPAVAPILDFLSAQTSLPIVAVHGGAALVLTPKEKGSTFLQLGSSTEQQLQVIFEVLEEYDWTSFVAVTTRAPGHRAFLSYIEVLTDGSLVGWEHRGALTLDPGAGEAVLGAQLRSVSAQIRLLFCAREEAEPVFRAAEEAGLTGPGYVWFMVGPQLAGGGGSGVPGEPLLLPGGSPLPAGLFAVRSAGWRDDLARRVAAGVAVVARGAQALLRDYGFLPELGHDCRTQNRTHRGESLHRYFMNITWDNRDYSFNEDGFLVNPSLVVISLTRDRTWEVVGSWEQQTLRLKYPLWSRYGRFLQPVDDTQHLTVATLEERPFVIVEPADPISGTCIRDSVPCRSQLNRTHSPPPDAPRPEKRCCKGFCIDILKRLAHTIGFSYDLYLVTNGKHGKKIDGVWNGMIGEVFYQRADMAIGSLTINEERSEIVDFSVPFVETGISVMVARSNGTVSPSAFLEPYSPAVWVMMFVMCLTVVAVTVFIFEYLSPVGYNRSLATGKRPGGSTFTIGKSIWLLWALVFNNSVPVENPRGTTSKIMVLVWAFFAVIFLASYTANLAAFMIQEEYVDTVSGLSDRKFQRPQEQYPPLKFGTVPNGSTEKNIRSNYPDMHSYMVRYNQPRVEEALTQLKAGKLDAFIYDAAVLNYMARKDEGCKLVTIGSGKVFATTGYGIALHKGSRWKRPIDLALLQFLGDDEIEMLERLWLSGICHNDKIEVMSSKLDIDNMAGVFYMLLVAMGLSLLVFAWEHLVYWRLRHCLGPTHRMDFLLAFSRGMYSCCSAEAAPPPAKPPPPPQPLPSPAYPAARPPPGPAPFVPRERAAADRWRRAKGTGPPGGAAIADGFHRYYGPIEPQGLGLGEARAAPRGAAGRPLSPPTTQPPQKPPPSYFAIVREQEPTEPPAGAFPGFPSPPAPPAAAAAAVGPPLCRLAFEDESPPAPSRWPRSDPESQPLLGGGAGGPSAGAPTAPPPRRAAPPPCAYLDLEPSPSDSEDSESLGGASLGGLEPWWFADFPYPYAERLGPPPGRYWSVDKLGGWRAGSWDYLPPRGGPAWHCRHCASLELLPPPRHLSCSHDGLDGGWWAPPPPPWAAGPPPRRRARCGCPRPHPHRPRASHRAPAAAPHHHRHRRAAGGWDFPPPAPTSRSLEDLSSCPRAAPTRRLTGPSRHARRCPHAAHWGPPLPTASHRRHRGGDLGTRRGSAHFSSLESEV

With `C[C@@]12CCC[C@H]1[C@@H]1CC[C@@H]3C[C@H](NC(=O)[C@@H](N)CC(=O)O)CC[C@]3(C)[C@H]1CC2` [Compound 6, (S)-3-amino-4-(((3R,5R,8S,9S,10S,13S,14S)-10,13-dimethylhexadecahydro-1H-cyclopenta[a]phenanthren-3-yl)amino)-4-oxobutanoic acid], the “h ± SD (apparent Hill coefficient)” value at GluN1/GluN2C receptors and at GluN1/GluN2D receptors was 1.6 ± 0.3 each time. Also, the IC50 (as a rule, the midpoint of a concentration-inhibition curve) against GluN1/GluN2C receptors (concentration-response) amounted to 7.3 ± 0.8 µM; against GluN1/GluN2D receptors (concentration-response) it was 8.4 ± 1 µM. The fraction remaining (in general, what is left of the initial amount, in per cent) at 8 h, 42.1 μg/mL in series [1] turned out to be 97%.
